Measured values taken from US20080249088A1, “Topical Delivery of Antifungal Drugs” (priority 2007, published 2008).

Experiment: solubility in water
Format: physicochemical
Experimental: In the preferred embodiment, a 100 ml. mixture would be created by mixing 1 gram of butenafine with 5 ml. of benzyl alcohol at room temperature. This would then be dissolved into 85 ml. of ethanol, then 10 ml. of water would be added.

solubility in water: limited solubility
Structure (SMILES): CN(Cc1ccc(C(C)(C)C)cc1)Cc1cccc2ccccc12 [Butenafine, butenafine]
